Results: patent US20120004205A1, “IL-13 INDUCED GENE SIGNATURE FOR EOSINOPHILIC ESOPHAGITIS” (Cincinnati Children's Hospital Medical Center, priority 2008, published 2012)

Experiments:
[1] = tested on: IL-13 mRNA; assay: IL-13 mRNA in esophageal biopsy specimens of FP-treated EE patients, real-time PCR; assay type: in vivo, human; conditions: patients with EE treated successfully with FP
Description: (§1) For each patient, one distal esophageal mucosal biopsy sample was immersed in RNA, later RNA stabilization reagent (Qiagen) and stored at 4 C. for <15 days. Total RNA was extracted using the RNAeasy Mini Kit (Qiagen) according to the manufacturer's recommendations. Hybridization to DNA microarray was performed by the MicroarrayCore at Cincinnati Children's Hospital Medical Center, as previously reported Blanchard, C. et al., (2006) J. Clin. Invest. 116: 536-547. The genome wide human Affymetrix U133A plus 2.0 Genechip® was used, and gene transcript levels were determined using algorithms in the Microarray Analysis Suite and GeneSpring software (Silicon Genetics) as previously described Blanchard, C. et al., (2006) J. Clin. Invest. 116: 536-547. […] Response to therapy was defined as <1 eosinophils/high power field (hpf) and no epithelial cell hyperplasia as described herein.
(§2) (rev) […]; IL-13R2 (396 bp): (fwd): […] (rev) […]; IL-4Rα (335 bp): (fwd): […]
(§3) Wood, N. et al., (2003) J. Exp. Med. 197: 703-709. In patients with EE with successful anti-inflammatory intervention, IL-13 overexperssion can be normalized. […] Similarly, eotaxin-3 mRNA was normalized in FP-responder patients (P<0.01; FIG. 6B). […] Remarkably, 98% of the EE transcriptome was reversed to expression levels detected in biopsy specimens of healthy patients (FIG. 6C). […]

[2] = tested on: eotaxin-3 mRNA; assay: Eotaxin-3 mRNA in esophageal biopsy specimens of FP-treated EE patients, real-time PCR; assay type: in vivo, human; conditions: P<0.01
Description: as §1, §2, §3

[3] = tested on: EE transcriptome; assay: Microarray analysis of the EE transcriptome in successfully treated EE patients; assay type: in vivo, human
Description: as §1, with “herein. […] Wood, N. et al., (2003) J. Exp. Med. 197: 703-709. In patients with EE with successful anti-inflammatory intervention, IL-13 overexperssion can be normalized. […] Similarly, eotaxin-3 mRNA was normalized in FP-responder patients (P<0.01; FIG. 6B). […] Remarkably, 98% of the EE transcriptome was reversed to expression levels detected in biopsy specimens of healthy patients (FIG. 6C). […]” for “herein.”

[4] = tested on: cadherin-26 (CDH26); assay: Cadherin-26 expression in FP-treated EE patients, real-time PCR; assay type: in vivo, human; conditions: P<0.05
From the text: as §2
Wood, N. et al., (2003) J. Exp. Med. 197: 703-709. In patients with EE with successful anti-inflammatory intervention, IL-13 overexperssion can be normalized. […] Similarly, eotaxin-3 mRNA was normalized in FP-responder patients (P<0.01; FIG. 6B). The research next aimed to determine whether the EE transcriptome was also reversible in patients with EE successfully treated with glucocorticoids. Remarkably, 98% of the EE transcriptome was reversed to expression levels detected in biopsy specimens of healthy patients (FIG. 6C). The reversible genes include cell-specific transcripts, including eosinophil, mast cell, lymphocyte, fibroblast, and epithelial genes. In addition, genes involved in cellular recruitment and cell proliferation were also reversible. Although the biopsy specimens had no abnormal microscopic features, 12 genes were still dysregulated (FIG. 6B).

[5] = tested on: patients with EE; conditions: in vivo; cited from earlier work

## CCC(=O)O[C@]1(C(=O)SCF)[C@H](C)C[C@H]2[C@@H]3C[C@H](F)C4=CC(=O)C=C[C@]4(C)[C@@]3(F)[C@@H](O)C[C@@]21C [FP, S-fluoromethyl-6α,9-difluoro-11β-hydroxy-16α-methyl-3-oxo androsta-1,4-diene-17β-carbothioate, 17-propionate]
[1]
  IL-13 mRNA levels in EE responders compared with untreated specimens: significantly (P<0.01) reduced
[2]
  eotaxin-3 mRNA in FP-responder patients: normalized
[3]; patients with EE successfully treated with glucocorticoids
  EE transcriptome reversed to expression levels of healthy patients: 98%
[3]; successfully treated EE patients, fold change filter 2
  genes still dysregulated after treatment: 12 genes
[4]
  cadherin-26 expression in FP-treated patients with EE: residual upregulation
[5]
  EE disease remission compared with placebo treatment: induces EE disease remission
